The source of these data is US12454703B2, “Controllable transcription” (Cambridge Enterprise Limited (GB/GB), priority 2016, dated 2025).

Structures are written as SMILES.

The test system of one assay is induced myocytes. The assay can be described thus: Contraction of induced skeletal myocytes. Conditions: nanomolar concentrations. In kind it is cell-based, human.
Assay [1] relates to EGFPd2 homozygous sOPTiKO hESCs. The assay can be described thus: Inducible CRISPR/Cas9 knockout of EGFPd2 reporter in hESCs. Format: cell-based, human. The method, then: For single site OPTIKO, AAVS1 targeting was performed by nucleofection. hESCs pre-treated for 16 h with 10 μM Y-27632 (Tocris) were dissociated to clumps of 2-8 cells using Accutase (Gibco), and 2×10^6 cells were nucleofected in 100 μl with a total of 12 μg of DNA (4 μg each for the two ZFN plasmids, and 2 μg each for the two targeting vectors) using the Lonza P3 Primary Cell 4D-Nucleofector X Kit and the cycle CA-137 on a Lonza 4D-Nucleofector System, all according to manufacturer's instructions. Nucleofected hESCs were plated onto a feeder layer of irradiated DR4 (puromycin and neomycin resistant) mouse embryonic fibroblasts and cultured in KSR media supplemented with 4 ng ml-1 FGF2 and 10 μM Y-27632 (this last only for the first 24 h). After 4 days, hPSC colonies carrying both puromycin and neomycin resistance gene were selected for 7-10 days with 25 μg ml-1 of Geneticin (G418 Sulfate, Gibco) and 0.5 μg ml-1 Puromycin. Individual clones were then picked and expanded in feeder-free conditions.
Unless otherwise described in the figure legends or Examples, tetracycline hydrochloride (sigma-Aldrich) was used at 1 μg ml^−1 to induce gene knockdown or knockout. Induction of neurons Pluripotent OPTi-NGN2 cells were dissociated into single cells with TrypLE and plated onto Matrigel (35 μg/cm^2, Scientific Laboratory Supplies) coated dishes at a density of 75.000 cells per well of a 12 well plate. […] After 2 days of induction, the medium was switched to Neurobasal-medium supplemented with Glutamax (100×), B27 (50×, Gibco), BDNF (10 ng/ml, Peprotech), NT3 (10 ng/ml, R&D Systems), Penicillin/Streptomycin (1%), and doxycycline (1 μg/ml).

Procedure for OPTi-MYOD1 hPSCs: Pluripotent OPTi-MYOD1 cells were dissociated into single cells with TrypLE and plated onto gelatine/MEF-medium coated dishes at a density of 100.000 cells per well of a 12 well plate. Forward programming was initiated 24-48 hours after the split. […] After 5 days of induction, the medium was supplemented with CHIR99021 (3 μM, Tocris) and heat-inactivated horse serum (2%, Gibco) to enhance maturation.
For analysis of EGFP expression cells were harvested with TrypLE Select (Gibco) for 5-10 minutes at 37° C. to obtain a single cell suspension. Following a wash with PBS, cells were resuspended in ice-cold PBS supplemented with DAPI (10 μg/ml), and incubated for 5 minutes on ice. Cells were analyzed using a Cyan ADP flow-cytometer to determine the levels of EGFP expression of viable cells (DAPI negative). For staining and analysis of myosin heavy chain expression cells were harvested with TrypLE Select (as for EGFP expression analysis), washed once with PBS, and fixed and permeabilized with Cytofix/Cytoperm solution (BD Biosciences). Subsequently, cells were washed and blocked in Perm/Wash buffer (BD Biosciences) supplemented with 3% bovine serum albumin (BSA) at +4° C. overnight. […] After three washes with Perm/Wash buffer cells were analyzed with a Cyan ADP flowcytometer to determine the levels of MHC expression. […]

Regarding `CC1=C(/C=C/C(C)=C/C=C/C(C)=C/C(=O)O)C(C)(C)CCC1` [all-trans retinoic acid], the “conversion into myogenin and myosin heavy chain (MHC) double-positive myocytes” value in the assay with OPTi-MYOD1 hPSCs (in conjunction with MYOD1 overexpression, by day 5 after induction) is “rapid and near-complete conversion”. Also, in the assay on OPTi-MYOD1 hPSCs (mediated through RA-receptor isoforms RARa and RARB), the “nature of the RA effect on myocyte conversion” value is given as “concentration dependent”.
Regarding `C[N+](C)(C)CCOC(N)=O` [carbachol], the muscle fiber contraction entry in the assay on induced myocytes is “complete muscle fiber contraction”.
Regarding `CN(C)[C@@H]1C(O)=C(C(N)=O)C(=O)[C@@]2(O)C(O)=C3C(=O)c4c(O)cccc4[C@@](C)(O)[C@H]3C[C@@H]12` [tetracycline], the “reduction in EGFPd2 fluorescence” value in assay [1] (five days following tetracycline induction, EGFPd2 homozygous cells) is listed as 50%. Besides, the knockout entry in assay [1] (optimal gRNA sequence, 2 days of induction) is listed as “up to 90%”. For the same molecule, the “EGFPd2 homozygous cells with full loss of EGFPd2 fluorescence” value in assay [1] (prolonged treatment with tetracycline) was “up to 75%”. The molecule further displayed a knockout efficiency in assay [1] (simultaneous induction of three copies of the same gRNA) of 95%.
